According to ChEMBL document CHEMBL5543059, “Discovery of anti-inflammatory natural flavonoids: Diverse scaffolds and promising leads for drug discovery” (Eur J Med Chem, 2023):

Tests used:
HaCaT = test: Anti-inflammatory activity in LPS-stimulated human HaCaT cells assessed as reduction of IL-6 expression at 12.5 uM; type: functional; design: scale not given: the % may be the effect or the level left
Neutrophil [1] = test: Inhibition of fMLF/CB-induced human Neutrophil activation assessed as reduction in elastase release using MeO-Suc-Ala-Ala-Pro-Val-pnitroanilide as substrate pre-incubated for 2 mins followed by fMLF/CB-stimulation and measured for 5 mins; type: functional, cell-based
[2] = molecular target: Transient receptor potential cation channel subfamily V member 1 (Homo sapiens) (UniProt Q8NER1); test: Inhibition of TRPV-1 (unknown origin) at 12.5 uM relative to control
Chain of Transient receptor potential cation channel subfamily V member 1 (Homo sapiens) (Q8NER1 whole entry): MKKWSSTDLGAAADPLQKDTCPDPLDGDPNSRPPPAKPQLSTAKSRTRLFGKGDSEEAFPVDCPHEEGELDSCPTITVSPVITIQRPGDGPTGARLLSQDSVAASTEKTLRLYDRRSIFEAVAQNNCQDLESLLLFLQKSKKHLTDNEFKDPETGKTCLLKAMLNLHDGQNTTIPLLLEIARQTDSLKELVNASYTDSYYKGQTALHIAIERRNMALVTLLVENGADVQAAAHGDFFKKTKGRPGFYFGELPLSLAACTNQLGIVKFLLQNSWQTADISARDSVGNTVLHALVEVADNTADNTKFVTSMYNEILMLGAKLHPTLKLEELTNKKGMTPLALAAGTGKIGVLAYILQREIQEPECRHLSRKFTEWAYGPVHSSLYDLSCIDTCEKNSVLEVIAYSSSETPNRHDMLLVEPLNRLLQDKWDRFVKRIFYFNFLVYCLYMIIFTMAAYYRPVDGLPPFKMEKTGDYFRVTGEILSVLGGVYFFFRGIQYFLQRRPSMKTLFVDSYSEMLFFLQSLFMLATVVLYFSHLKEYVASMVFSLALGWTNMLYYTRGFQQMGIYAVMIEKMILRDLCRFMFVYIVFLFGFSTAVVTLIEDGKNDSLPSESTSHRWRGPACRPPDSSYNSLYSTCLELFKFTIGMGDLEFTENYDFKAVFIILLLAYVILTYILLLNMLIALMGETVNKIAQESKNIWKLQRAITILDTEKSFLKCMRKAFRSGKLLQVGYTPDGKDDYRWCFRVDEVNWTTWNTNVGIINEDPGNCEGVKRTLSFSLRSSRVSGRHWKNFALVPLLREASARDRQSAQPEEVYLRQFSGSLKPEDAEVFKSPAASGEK

J774.A1 [3] = test: Antiinflammatory activity against mouse J774.A1 cells assessed as inhibition of LPS-stimulated IL-1beta level by ELISA method; type: functional, cell-based
Rattus norvegicus [4] = test: Anti-inflammatory activity in LPS-induced Sprague-Dawley rat assessed as reduction in TNF-alpha level at 20 mg/kg, po pre-incubated for 1 hr with compound followed by LPS-stimulation measured for 24 hrs by ELISA analysis; type: functional; design: scale not given: the % may be the effect or the level left; conditions: time 25 hrs
RAW264.7 [5] = test: Antiinflammatory activity against mouse RAW264.7 cells assessed as inhibition of LPS-stimulated IL-1beta level by ELISA method; type: functional, cell-based
RAW264.7 [6] = test: Anti-inflammatory activity against mouse RAW264.7 cells assessed as inhibition of TNF-alpha production incubated for 18 hrs by ELISA analysis; type: functional, cell-based; conditions: RAW264.7, 18 h
RAW264.7 [7] = test: Antiinflammatory activity against mouse RAW264.7 cells assessed as inhibition of LPS-stimulated TNF-alpha level by ELISA method; type: functional, cell-based
Rattus norvegicus [8] = test: Anti-inflammatory activity in LPS-induced Sprague-Dawley rat assessed as reduction in IL-1beta level at 20 mg/kg, po pre-incubated for 1 hr with compound followed by LPS-stimulation measured for 24 hrs by ELISA analysis; type: functional; design: scale not given: the % may be the effect or the level left; conditions: time 25 hrs
RAW264.7 [9] = test: Anti-inflammatory activity against mouse RAW264.7 cells assessed as inhibition of IL-1beta level incubated for 18 hrs by ELISA analysis; type: functional, cell-based; conditions: RAW264.7, 18 h
J774.A1 [10] = test: Antiinflammatory activity against mouse J774.A1 cells assessed as inhibition of LPS-stimulated TNF-alpha level by ELISA method; type: functional, cell-based; conditions: Mus musculus, J774.A1; read-out: IC50
RAW264.7 [11] = test: Anti-inflammatory activity against mouse RAW264.7 cells assessed as inhibition of LPS-induced NO production pre-treated with compound for 1 hr followed by LPS-stimulation and measured for 1 hr; type: functional, cell-based
RAW264.7 [12] = test: Anti-inflammatory activity against mouse RAW264.7 cells assessed as inhibition of LPS-induced NO production pre-incubated for 1 hr followed by compound addition and measured after 18 hrs by Griess reagent based analysis; type: functional, cell-based
Rattus norvegicus [13] = test: Anti-inflammatory activity against carrageenan-induced paw edema in Wistar rat assessed as reduction in paw edema at 100 mg/kg, po measured after 1 hrs relative to control; type: functional; design: scale not given: the % may be the effect or the level left
[14] = Anti-inflammatory activity in carrageenan-induced human PBMC cells assessed as inhibition of IL-beta leakage at 10 uM measured for 24 hrs relative to control; type: functional; design: scale not given: the % may be the effect or the level left
Neutrophil [15] = test: Inhibition of fMLF/CB-induced human Neutrophil activation assessed as reduction in elastase release at 10 uM relative to control; type: functional; design: scale not given: the % may be the effect or the level left
Mus musculus [16] = test: Anti-inflammatory activity against xylene-induced ear edema Swiss mouse model assessed as inhibition of ear edema at 0.25 ug/ml, po measured after 6 hrs relative to control; type: functional; design: scale not given: the % may be the effect or the level left; conditions: dose 0.25 µg/ml
Neutrophil elastase = molecular target: T1, Neutrophil elastase (Homo sapiens, UniProt P08246); test: Inhibition of human Neutrophil elastase; type: cell-based
T1 sequence (P08246 whole entry): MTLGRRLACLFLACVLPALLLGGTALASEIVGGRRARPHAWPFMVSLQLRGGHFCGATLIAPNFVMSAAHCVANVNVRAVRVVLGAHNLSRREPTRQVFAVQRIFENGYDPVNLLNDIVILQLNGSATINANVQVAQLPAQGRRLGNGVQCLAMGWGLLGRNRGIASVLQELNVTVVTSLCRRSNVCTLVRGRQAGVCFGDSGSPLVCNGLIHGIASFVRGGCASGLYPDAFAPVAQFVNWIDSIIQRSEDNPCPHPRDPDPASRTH

Mus musculus [17] = test: Anti-inflammatory activity against xylene-induced ear edema Swiss mouse model assessed as inhibition of ear edema at 0.025 ug/ml, po measured after 6 hrs relative to control; type: functional; design: scale not given: the % may be the effect or the level left; conditions: dose 0.025 µg/ml
Rattus norvegicus [18] = test: Anti-inflammatory activity against carrageenan-induced paw edema in Wistar rat assessed as reduction in paw edema at 100 mg/kg, po measured after 3 hrs relative to control; type: functional; design: scale not given: the % may be the effect or the level left
RAW264.7 [19] = test: Anti-inflammatory activity against mouse RAW264.7 cells assessed as inhibition of LPS-induced NO production; type: functional, cell-based
BV-2 [20] = test: Anti-inflammatory activity against LPS-induced mouse BV-2 cells assessed as inhibition of 5-lipoxygenase level at 25 microg/ml pre-incubated for 30 mins followed by LPS-stimulation and measured after 6 hrs by RT-PCR analysis; type: functional; design: scale not given: the % may be the effect or the level left; conditions: dose 25 µg/ml; time 390 min; 6.5 h
BV-2 [21] = test: Anti-inflammatory activity against LPS-induced mouse BV-2 cells assessed as inhibition of COX-2 level at 12.5 microg/ml pre-incubated for 30 mins followed by LPS-stimulation and measured after 6 hrs by RT-PCR analysis; type: functional; design: scale not given: the % may be the effect or the level left; conditions: dose 12.5 µg/ml; time 390 min; 6.5 h
BV-2 [22] = test: Anti-inflammatory activity against LPS-induced mouse BV-2 cells assessed as reduction in Interleukin-1beta production at 10 uM pre-incubated for 30 mins followed by LPS-stimulation and measured after 6 hrs by RT-PCR analysis; type: functional; design: scale not given: the % may be the effect or the level left; conditions: time 390 min, 6.5 h
BV-2 [23] = test: Anti-inflammatory activity against LPS-induced mouse BV-2 cells assessed as reduction in IL-6 production at 10 uM pre-incubated for 30 mins followed by LPS-stimulation and measured after 6 hrs by RT-PCR analysis; type: functional; design: scale not given: the % may be the effect or the level left; conditions: time 390 min, 6.5 h
Mus musculus [24] = test: Antiinflammatory activity in carrageenan-induced Kunming mouse model of paw edema assessed as paw volume at 1 mg/kg, ip pre-incubated for 1 hr followed by carrageenan administration measured for 60 mins relative to control; type: functional; conditions: time 2 hrs
Mus musculus [25] = test: Analgesic activity against acetic acid-induced BALB/c writhing mouse model assessed as inhibition of writhing at 10 mg/kg, ip pre-incubated for 30 mins followed by acetic acid addition and measured after 15 mins relative to control; type: functional; design: scale not given: the % may be the effect or the level left; conditions: time 45 min, 0.75 h
Neutrophil [26] = test: Inhibition of fMLF-induced chemotaxis in human neutrophils pretreated for 45 mins followed by fMLF-stimulation measured for 1 hr by luminescence based analysis; type: functional, cell-based
Mus musculus [27] = test: Antiinflammatory activity against TPA-induced CD-1 mouse ear edema model assessed as reduction in ear edema; type: functional, organism-based
Mus musculus [28] = test: Antiinflammatory activity against TPA-induced CD-1 mouse ear edema model assessed as reduction in ear edema at 0.25 mg/kg relative to control; type: functional; design: scale not given: the % may be the effect or the level left
Rattus norvegicus [29] = test: Anti-inflammatory activity against LPS-induced paw edema in Sprague-Dawley rat assessed as inhibition of paw edema; type: functional

Molecule COc1cc(O)c2c(=O)cc(-c3ccc(O)c(O)c3)oc2c1 has an Activity (HaCaT) of 52%, an IC50 (Neutrophil [1]) of no more than 15.2 µM and an inhibition [2] of 33%.

Work on COc1cc(O)c2c(c1)OC(c1ccccc1)CC2=O (stereo unspecified) yielded an IC50 (J774.A1 [3]) of 19.6 µM, an Activity (Rattus norvegicus [4]) of 48.6% and an IC50 (RAW264.7 [5]) of 17.3 µM. For the same molecule, the IC50 (RAW264.7 [6]) was less than 22 µM, the IC50 (RAW264.7 [7]) was 23.5 µM and the Activity (Rattus norvegicus [8]) was 53.1%. It also gave an IC50 (RAW264.7 [9]) of 40 µM and an IC50 (J774.A1 [10]) of 37.5 µM.

With CC(C)=CCC/C(C)=C/Cc1c(O)ccc2c1O[C@H](c1ccc(O)cc1)CC2=O the IC50 (RAW264.7 [11]) was 8.13 µM.

For CC(C)=CCC/C(C)=C/Cc1c(C2CC(=O)c3c(cc(O)c(CC=C(C)C)c3O)O2)ccc(O)c1O (stereo unspecified), the IC50 (RAW264.7 [12]) was 2.4 µM.

For COc1ccc(-c2cc(=O)c3c(O)c(OC)c(OC)c(OC)c3o2)cc1OC [5-DEMETHYLNOBILETIN], the Activity (Rattus norvegicus [13]) was 65%, the Activity [14] was 24.8% and the Activity (Neutrophil [15]) was 89%. The Activity (Mus musculus [16]) was 41%, the IC50 (Neutrophil elastase) was 0.35 µM and the Activity (Mus musculus [17]) was 79%. It also gave an Activity (Rattus norvegicus [18]) of 47%.

O=c1cc(-c2ccc(O)cc2)oc2cc(O)cc(O)c12 [APIGENIN] showed an IC50 (RAW264.7 [19]) of 12.2 µM, an Activity (BV-2 [20]) of 88.3% and an Activity (BV-2 [21]) of 89.2%. It also gave an Activity (BV-2 [22]) of 68% and an Activity (BV-2 [23]) of 68%.

Work on O=c1cc(-c2ccccc2)oc2cc(O)cc(O)c12 [CHRYSIN] yielded an Activity (Mus musculus [24]) of 25%, an Activity (Mus musculus [25]) of 56% and an IC50 (Neutrophil [26]) of 2.25 µM.

O=C1C[C@@H](c2ccc(O)c(O)c2)Oc2cc(O)cc(O)c21 [ERIODICTYOL] showed an IC50 (Mus musculus [27]) of 0.72 µM and an Activity (Mus musculus [28]) of 56.3%.

COc1ccc(-c2cc(=O)c3c(O)c(OC)c(O)cc3o2)cc1OC [EUPATILIN] showed an ID50 (Rattus norvegicus [29]) of 0.28 umol/cm2.
